Data from article PMC12406255, “Engineering Peptide Modulators for T‑Cell Migration by Structural Scaffold Matching” (Journal of Medicinal Chemistry, 2025).
Like-named read-outs stand apart in the source and are kept apart here. Positions of bridges follow the written chain, without caps; N, C: chain ends. Non-standard residues stand in square brackets, D forms with d. Residues, ends and D or L forms follow the SMILES beside them. Nle = CCCC[C@H](N)C(=O)O

Assays:
Assay type in all cases: cell-based, human
[1] = test system: memory CD8+ cells (CD3+, CD8+, CD45RO+); settings: for % Inhibition of cell migration compared to control, Memory CD8+: normalized to untreated control, mean ± SEM of 4-6 experiments
Procedure: (§1) Transwell migration assays were performed similarly as published previously. HMEC-1 cells were seeded at a density of 75,000 cells per well in transwell inserts. Three days after cell seeding, the medium was changed, and the cells were stimulated with 100 ng/mL TNF-α and 20 ng/mL IFN-γ for 16–18 h. On the day of the assay, cells were washed with migration medium (serum-free RPMI medium supplemented with 0.1% BSA) to remove residual cytokines and starved for at least 1 h at 37 °C in migration medium. PBMC were starved for at least 1.5 h in migration medium before addition to the EC. For S1P and lifitegrast-treated samples, the PBMC were preincubated for at least 1.5 h at 37 °C with the ligands before addition to the EC. Pepitem and other peptides were added onto the EC monolayer and preincubated for 15–30 min at 37 °C before the addition of the PBMC. 200,000 PBMC per well were added directly on top of the EC prestimulated with pepitem or other peptides to reach a final volume of 150 μL in the donor compartments. The receiver compartments of the wells were filled with 600 μL RPMI with 20% FBS. After 4 h of migration at 37 °C, the receiver compartment with the migrated cells was collected. The migrated cells were stained with the indicated antibodies: CD3-APC (clone: OKT3, lot: B400127), CD4-PE (clone: OKT4. lot: B379180), CD8-FITC (clone: HIT8a, lot: B370193) from Biolegend and CD3-VioGreen (clone: REA613, lot: 5240502518), CD45RO-FITC (clone: REA611, lot: 5240502519), CD4-PerCP-Vio700 (clone: REA623, lot: 5240506702), CXCR3 PE-Vio615 (clone: REA232, lot: 5240506722), CD196-APC (clone: REA190, lot: 5240506717), CD8-APC-Vio770 (clone: REA734, lot: 5240303993) and CD45RO-PEVio616 (clone: REA611, lot: 5231102514) from Miltenyi Biotec (Bergisch Gladbach, Germany) and counted using precision counting beads (Biolegend) on a CytoflexS flow cytometer (BeckmanCoulter). Data was analyzed using CytExpert (Version 2.4). T cells were gated as CD3^+ cells, T cell subsets were gated as CD4^+ (CD3^+, CD4^+), CD8^+ (CD3^+, CD8^+), memory CD4^+ (CD3^+, CD4^+, CD45RO^+), memory CD8^+ (CD3^+, CD8^+, CD45RO^+) and Th1 cells (CD3^+, CD4^+, CXCR3^+, CCR6^–).
(§2) Data were analyzed using GraphPad Prism software. EC50 values were calculated by three-parameter nonlinear regression analysis. For this, the data points were normalized to the number of migrated cells in untreated (buffer) control samples (100%), and the regression was fitted with the top constraint to 100 and the slope fixed to 1. Statistical significance is indicated in graphs as n.s. not significant, * p < 0.05; ** p < 0.01; *** p < 0.001. The statistical tests used are indicated in the respective figure captions.

[2] = test system: CD8+ lymphocytes (CD3+, CD8+); settings: for % Inhibition of cell migration compared to control, CD8+: normalized to untreated control, mean ± SEM of 4-6 experiments
Procedure: as §1, §2

[3] = test system: CD4+ lymphocytes (CD3+, CD4+); settings: for % Inhibition of cell migration compared to control, CD4+: normalized to untreated control, mean ± SEM of 4-6 experiments
Procedure: as §1, §2

[4] = test system: memory CD4+ cells (CD3+, CD4+, CD45RO+); settings: for % Inhibition of cell migration compared to control, Memory CD4+: normalized to untreated control, mean ± SEM of 4-6 experiments
Procedure: as §1, §2

CD3+ lymphocytes = assay: cells; settings: for % Inhibition of cell migration compared to control, CD3+: normalized to untreated control, mean ± SEM of 4-6 experiments
Procedure: 1 Transwell-based migration assay to study lymphocyte transendothelial migration. (A) The general principle of the transwell migration assay is depicted. Endothelial cells (EC) are seeded in transwell inserts and are incubated for 2 days to form an EC monolayer. On the day before the assay, the ECs are cytokine-stimulated to induce the expression of adhesion molecules. In the migration assay, human peripheral blood mononuclear cells (PBMC) are placed into the donor compartment of the transwell setup. After 4 h of incubation time, the migrated cells are harvested from the receiver compartment, stained with fluorescent antibodies and counted using flow cytometry. (B) PBMCs were preincubated with S1P for 1.5 h and then transferred into the donor compartment on top of the EC monolayer. […] Data are shown as mean ± SD of 3 to 5 independent experiments.
as §1, §2

[5] = from the concentration-response experiment

CCCC[C@@H]1NC(=O)[C@H](C(C)C)NC(=O)[C@H](CCCCN)NC(=O)[C@@H](NC(=O)[C@H](CCC(N)=O)NC(=O)[C@H](CCC(=O)O)NC(C)=O)CSSC[C@@H](C(=O)N[C@@H](CCC(=O)O)C(=O)N[C@@H](CCCCN)C(N)=O)NC(=O)[C@H](CC(N)=O)NC(=O)[C@H](CC(=O)O)NC(=O)[C@H](CC(C)C)NC(=O)[C@@H]2CSSC[C@H](NC1=O)C(=O)N[C@@H](Cc1ccc(O)cc1)C(=O)N[C@@H](C)C(=O)N[C@@H](CCC(N)=O)C(=O)NCC(=O)N[C@@H](C)C(=O)N[C@@H](CCC(=O)O)C(=O)N[C@@H](CC(C)C)C(=O)N1CCC[C@H]1C(=O)N[C@@H](CCC(=O)O)C(=O)N[C@@H](CC(C)C)C(=O)N[C@@H](CC(C)C)C(=O)N[C@@H](CCCNC(=N)N)C(=O)N[C@@H](CCCNC(=N)N)C(=O)N2 [VhTI-pep 2] (Ac-EQCKV[Nle]CYAQGAELPELLRRCLDNCEK-NH2; disulfide 3-25, 7-21)
% Inhibition of cell migration compared to control, Memory CD8+ ([1]; 0.1 μM): 23.0 ± 6.9% | % Inhibition of cell migration compared to control, Memory CD8+ ([1]; 1 μM): 21.9 ± 8.1% | EC50 ([1]; EC monolayer pretreated with peptide, healthy-donor PBMC, 4 h, mean ± SD, 4 independent measurements, read-out: EC50, inhibition of memory CD8+ cell migration): 6.3 ± 9.7 nM | % Inhibition of cell migration compared to control, CD8+ ([2]; 0.1 μM): 37.0 ± 6.4% | % Inhibition of cell migration compared to control, CD8+ ([2]; 1 μM): 41.7 ± 8.5% | EC50 ([2]; EC monolayer pretreated with peptide, healthy-donor PBMC, 4 h, mean ± SD, 4 independent measurements, read-out: EC50, inhibition of CD8+ cell migration): 7.7 ± 11.4 nM | maximal effect of inhibition of cell migration, CD8+ lymphocytes [2, 5]: 40.0 ± 2.8% | % Inhibition of cell migration compared to control, CD4+ ([3]; 0.1 μM): 34.3 ± 8.0% | % Inhibition of cell migration compared to control, CD4+ ([3]; 1 μM): 33.2 ± 6.1% | EC50 ([3]; EC monolayer pretreated with peptide, healthy-donor PBMC, 4 h, mean ± SD, 4 independent measurements, read-out: EC50, inhibition of CD4+ cell migration): 10.5 ± 15.9 nM | maximal effect of inhibition of cell migration, CD4+ lymphocytes [3, 5]: 39.9 ± 12.5% | % Inhibition of cell migration compared to control, Memory CD4+ ([4]; 0.1 μM): 34.4 ± 16.7% | % Inhibition of cell migration compared to control, Memory CD4+ ([4]; 1 μM): 31.5 ± 10.4% | EC50 ([4]; EC monolayer pretreated with peptide, healthy-donor PBMC, 4 h, mean ± SD, 4 independent measurements, read-out: EC50, inhibition of memory CD4+ cell migration): 9.8 ± 16.5 nM | % Inhibition of cell migration compared to control, CD3+ (CD3+ lymphocytes; 0.1 μM): 28.7 ± 6.4% | % Inhibition of cell migration compared to control, CD3+ (CD3+ lymphocytes; 1 μM): 37.2 ± 6.8% | EC50 (CD3+ lymphocytes; EC monolayer preincubated with peptide 15-30 min, healthy-donor PBMC added, 4 h migration, flow cytometry, mean ± SD of 3 to 5 (VhTI-pep 2: 4) independent experiments, read-out: EC50, inhibition of CD3+ lymphocyte migration): 10.6 ± 16.5 nM | maximal effect of inhibition of cell migration, CD3+ lymphocytes (CD3+ lymphocytes; [5]): 39.3 ± 8.7%
